From patent US4303672A, “Cyclopropanecarboxylate insecticides and/or acaricides exhibiting low toxicity to mammals and fish” (priority 1979, dated 1981)
In brackets after ≈: the same amount, converted by molar mass. Read-outs that look alike come from different tables or passages of the source.

What was measured:
[1] = tested on: killifishes (Oryzias latipes); assay: Test Example 6: simulated paddy field test, killifish; format: in vivo; conditions: 100 ppm at 100 liter/10 are, water depth 5 cm, after 48 hours
Experimental: (§1) The wettable powder of each of the present compounds (1), (2), (4) and (5) prepared in Preparation Example 4 was diluted with water so that the concentration of active ingredient was 100 ppm. Soil was placed in a plastic box [5 m×5 m×2 m (deep)] to a level of 50 cm from the bottom, and rice plants about 50 cm high were transplanted at intervals of 50 cm. Water was then placed in the box so that water depth was 5 cm, and 20 killifishes (Oryzias latipes) were liberated therein. Thereafter, the above dilute solution was sprayed on the box at a rate of 100 liter/10 are. The solution fell on the rice plants as well as on the water surface.
(§2) One hour after treatment, 100 female adults of green rice leafhopper (Nephotettix cincticeps) were liberated in the box which was immediately covered with a net.

[2] = Test Example 1: Test for toxicity to fishes (killifish); format: in vivo, killifish (Oryzias latipes); conditions: water; killifish, 48 hours; read-out: Toxicity to fishes TLm48 (medium tolerance limit, 48 hours)
Experimental: (§3) Toxicity to killifish (Oryzias latipes) was tested according to the test method for toxicity to fishes described in Notification B No. 2735 of the Ministry of Agriculture and Forestry (Nov. 25, 1965). Namely, each of the present compounds (1), (4), (5) and (6) was dissolved or suspended in "Tween 80" and diluted successively with dechlorinated tap water. Ten killifish (0.2-0.3 g per fish) were released in a 10-liter glass vessel containing 5 liters of each preparation.
(§4) In order to make it clearer that the present compounds have a low toxicity to fishes as well as a high insecticidal activity, a safety coefficient to fishes was calculated from the test results of toxicity to fishes and insecticidal activity. [formula]
(§5) A detailed explanation will be given as to a method of how to calculate the safety coefficient. In the case of green rice leafhoppers, calculation was based on the concentration of active ingredient in water obtained by applying a test solution containing the active ingredient in an amount corresponding to LC50 (ppm) to a flooded paddy field 5 cm deep at a rate of 100 liter/10 are, provided that all the active ingredient applied entered the water.
(§6) In this case, the coefficient is 333, which means that the present compound (1) has a 333-fold safety.

[3] = tested on: killifish (Oryzias latipes); assay: as above; format: in vivo; conditions: TLm48 killifish (a) / concentration of active ingredient in water (b) at green rice leafhopper LC50
Experimental: as §3, §4, §5, §6

[4] = tested on: green rice leafhopper (Nephotettix cincticeps); assay: Test Example 6: simulated paddy field test, green rice leafhopper; format: in vivo; conditions: 100 ppm at 100 liter/10 are, after 48 hours
Experimental: as §1, §2

[5] = tested on: green rice leafhopper (Nephotettix cincticeps); assay: Test Example 1: Test for insecticidal activity (green rice leafhopper); format: in vivo; conditions: green rice leafhopper R-strain, spray on rice plant, 26° C., 24 hours, 3 replications, read-out: LC50 (median lethal concentration)
Text: The emulsifiable concentrates of the present compounds and reference compound prepared in Preparation Example 1 were each formulated into test solutions having four different concentrations of active ingredient between 500 ppm and 0.5 ppm. Each test solution was sprayed on rice plant in a 180-ml plastic cup which had elapsed one month after sowing, at a rate of 15 cc/2 cups by means of a turn table. After air-drying, the rice plant was covered with a wire-screen cage, and 15 female adults of green rice leafhopper (Nephotettix cincticeps) (a strain resistant to carbamates and organo-phosphates, hereinafter referred to as R-strain) were liberated therein. The plant was placed in an artificial climate chamber kept at 26° C. After 24 hours, the dead and alive were examined. The median lethal concentration [LC50 (ppm)] was calculated from the mortality determined by 3 replications.
as §5, §6

[6] = tested on: green rice leafhopper (Nephotettix cincticeps); assay: Test Example 5: Residual effect test (green rice leafhopper); format: in vivo
Experimental: The emulsifiable concentrate of the present compound (1) prepared in Preparation Example 1 was diluted with water so that the concentration of active ingredient was 400 ppm. Thereafter, 20 cc of the dilute solution was sprayed on rice plants grown in a 1/10,000 are Wagner's pot. The rice plants were air-dried and covered with a wire-screen cage, and 15 female adults of green rice leafhopper (Nephotettix cincticeps) were liberated therein. After 24 hours, the dead and alive were examined to obtain mortality. In order to examine the residual effect, the pot was then left as it was for 7 days, and the test insects were liberated in the same manner as above. After 24 hours, the mortality was examined. The experiment was carried out in a greenhouse and the number of replications was three.

[7] = Test Example 7: Test for toxicity to fishes (fry carp); format: in vivo, fry carp (Cyprinus carpio); conditions: water, read-out: Toxicity to fishes TLm48
Experimental: as §3
Toxicity to fry carp (Cyprinus carpio) was tested according to the test method for toxicity to fishes described in Notification B No. 2735 of the Ministry of Agriculture and Forestry (Nov. 25, 1965). The comparative test was made in a manner similar to that of Test Example 1.

[8] = tested on: carmine mites (Tetranychus cinnabarinus); assay: Test Example 4: spray test against carmine mites on rice plants; format: in vivo; conditions: 500 ppm spray, all stages, after 10 days
Experimental: The emulsifiable concentrate of each of the present compounds (1) and (6) prepared in Preparation Example 1 was diluted with water so that the concentration of the active ingredient was 500 ppm. The dilute liquor was thoroughly sprayed on rice plants (grown in a 1/10,000 are Wagner's pot) on which carmine mites (Tetranychus cinnabarinus) in all stages were made parasitic.

[9] = tested on: yellow fever mosquito (Aedes aegypti); format: in vivo; conditions: 50 mg granule in 100 cc water, full grown larvae, 24 hours
Experimental: Fifty milligrams of the granule of the present compound (1) obtained in Preparation Example 6 was placed in a 100-cc beaker containing 100 cc of distilled water, and 30 full grown larvae of yellow fever mosquito (Aedes aegypti) were liberated therein. After 24 hours, 100% of the larvae could be killed.

SMILES | killifish survival [1] | LC50 at 48 h [2] [µg/mL] | Safety coefficient to fishes (a)/(b) [3] | alive green rice leafhoppers found [4] | LC50 [5] [µg/mL] | mortality at 400 ppm ([6]; 24 h, read-out: Mortality, effect immediately after treatment) [%] | mortality at 400 ppm ([6]; read-out: Mortality, effect 7 days after treatment) [%] | LC50 at 48 h [7] [µg/mL] | spreading of the damage to rice plants by carmine mites [8] | larvae killed [9] [%] | mortality at 400 ppm ([6]; 400 ppm spray, 24 hours after liberation, greenhouse, read-out: Mortality, effect immediately after treatment) [%] | mortality at 400 ppm ([6]; 400 ppm spray, insects liberated 7 days after treatment, 24 hours, greenhouse, read-out: Mortality, effect 7 days after treatment) [%]
CC1(C)C(C(=O)OC(C#N)c2cccc(Oc3ccc(Br)cc3)c2)C1C(Br)C(Br)(Br)Br (stereo not drawn) [(4), m-(p-Bromophenoxy)-α-cyanobenzyl 2,2-dimethyl-3-(1,2,2,2-tetrabromoethyl)cyclopropanecarboxylate] | all the killifishes were alive | > 10 | > 500 | no alive green rice leafhoppers were found | 10 (≈ 13.4 µM) |  |  |  |  |  |  | 
CNC(=O)Oc1ccc(C)c(C)c1 [MPMC, 3,4-Xylyl Nmethylcarbamate-, reference compound] |  |  |  |  |  | 100 | 0 |  |  |  |  | 
CC1(C)[C@H](C(=O)OC(C#N)c2cccc(Oc3ccc(Br)cc3)c2)[C@H]1C(Br)C(Cl)(Cl)Br (relative stereo) [(2), m-(p-Bromophenoxy)-α-cyanobenzyl dl-trans-2,2-dimethyl-3-(1,2-dibromo-2,2-dichloroethyl)cyclopropanecarboxylate] | all the killifishes were alive |  |  | no alive green rice leafhoppers were found |  |  |  | > 1 |  |  |  | 
CC1(C)C(C(=O)OC(C#N)c2cccc(Oc3ccccc3)c2)C1C(Br)C(Cl)(Cl)Br (centres unmarked) [(A), reference compound] |  | 0.5 (≈ 0.868 µM) | 50 |  | 5 (≈ 8.68 µM) |  |  | 0.00395 (≈ 0.00686 µM) |  |  |  | 
CC1(C)C(C(=O)OC(C#N)c2cccc(Oc3ccc(Br)cc3)c2)C1C(Br)C(Cl)(Cl)Br (stereo not drawn) [(1), m-(p-Bromophenoxy)-α-cyanobenzyl 2,2-dimethyl-3-(1,2-dibromo-2,2-dichloroethyl)cyclopropanecarboxylate] | all the killifishes were alive | 4 (≈ 6.11 µM) | 333 | no alive green rice leafhoppers were found | 5.8 (≈ 8.85 µM) |  |  | > 1 | the spreading of the damage could be prevented | 100 | 100 | 100
CC1(C)C(C(=O)OC(C#N)c2cccc(Oc3ccc(F)cc3)c2)C1C(Br)C(Cl)(Cl)Br (centres unmarked) [(B), reference compound] |  | 0.1 (≈ 0.168 µM) | 8 |  | 6.5 (≈ 10.9 µM) |  |  | 0.0028 (≈ 0.00471 µM) |  |  |  | 
CC1(C)[C@H](C(=O)OC(C#N)c2cccc(Oc3ccc(Br)cc3)c2)[C@H]1C(Br)C(Br)(Br)Br (stereo partly drawn) [(5), m-(p-Bromophenoxy)-α-cyanobenzyl d-trans-2,2-dimethyl-3-(1,2,2,2-tetrabromoethyl)cyclopropanecarboxylate] | all the killifishes were alive | > 5 | > 1667 | no alive green rice leafhoppers were found | 1.7 (≈ 2.29 µM) |  |  |  |  |  |  | 
CC1(C)[C@H](C(=O)OC(C#N)c2cccc(Oc3ccc(Br)cc3)c2)[C@@H]1C(Br)C(Cl)(Cl)Br (relative stereo) [(3), m-(p-Bromophenoxy)-α-cyanobenzyl dl-cis-2,2-dimethyl-3-(1,2-dibromo-2,2-dichloroethyl)cyclopropanecarboxylate] |  |  |  |  |  |  |  | > 1 |  |  |  | 
CC1(C)[C@H](C(=O)OC(C#N)c2cccc(Oc3ccc(Br)cc3)c2)[C@@H]1C(Br)C(Br)(Br)Br (stereo partly drawn) [(6), m-(p-Bromophenoxy)-α-cyanobenzyl d-cis-2,2-dimethyl-3-(1,2,2,2-tetrabromoethyl)cyclopropanecarboxylate] |  | > 5 | > 263 |  | 9.5 (≈ 12.8 µM) |  |  |  | the spreading of the damage could be prevented |  |  | 
